Assay results taken from PubChem BioAssay AID2060601 (Molecular Pharmacology Branch, DTP, NCI, 2025).

Tested on: 874868-142-R-J2-PDC complex spheroids, growth % test/control
Assay: Anticancer human tumor 874868-142-R-J2-PDC patient-derived head and neck squamous carcinoma cell line growth inhibition [CLK]
Details: for IC50: curve of first compound; for viability, T/C: stronger effect = lower value
How it was run: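 Patient-derived tumor cells grown as complex spheroids with HUVEC endothelial cells and mesenchymal stem cells, treated with drug combinations. Concentrations descend in half-log steps from near clinical Cmax, or from 10 microM if Cmax unknown.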
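Also: spheroids exposed to the compounds for 7 days.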
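For viability, T/C in this document: 100% = DMSO vehicle control viability.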

Work on CC(C)CC(NC(=O)C(Cc1ccccc1)NC(=O)c1cnccn1)B(O)O (centres undefined) + CN1CCN(c2cc(C(=O)Nc3cc4cc(-c5cnn(C)c5)ccc4cn3)ccn2)CC1 yielded an IC50 (second compound 0.0316 µM) of 4.88 nM, an IC50 (second compound 0.1 µM) of 4.5 nM and an IC50 (second compound 0.316 µM) of less than 0.949 nM. For the same compound, the IC50 (second compound 1 µM) was less than 0.949 nM, the IC50 (second compound 3.16 µM) was less than 0.949 nM and the IC50 (second compound 10 µM) was less than 0.949 nM. For the same compound, the viability, T/C (second compound 0.0316 µM, first compound 0.000949 µM) was 79.4%, the viability, T/C (second compound 0.0316 µM, first compound 0.003 µM) was 91.5% and the viability, T/C (second compound 0.0316 µM, first compound 0.00949 µM) was 1.41%. The viability, T/C (second compound 0.0316 µM, first compound 0.03 µM) was 0.55%, the viability, T/C (second compound 0.0316 µM, first compound 0.0949 µM) was 0.23% and the viability, T/C (second compound 0.0316 µM, first compound 0.3 µM) was 0.27%. It also gave a viability, T/C (second compound 0.1 µM, first compound 0.000949 µM) of 68.9%, a viability, T/C (second compound 0.1 µM, first compound 0.003 µM) of 83.1% and a viability, T/C (second compound 0.1 µM, first compound 0.00949 µM) of 2.27%. The viability, T/C (second compound 0.1 µM, first compound 0.03 µM) was 0.42%, the viability, T/C (second compound 0.1 µM, first compound 0.0949 µM) was 0.14% and the viability, T/C (second compound 0.1 µM, first compound 0.3 µM) was 0.34%. It also gave a viability, T/C (second compound 0.316 µM, first compound 0.000949 µM) of 20.8%, a viability, T/C (second compound 0.316 µM, first compound 0.003 µM) of 14.3% and a viability, T/C (second compound 0.316 µM, first compound 0.00949 µM) of 0.46%. For the same compound, the viability, T/C (second compound 0.316 µM, first compound 0.03 µM) was 0.14%, the viability, T/C (second compound 0.316 µM, first compound 0.0949 µM) was 0.13% and the viability, T/C (second compound 0.316 µM, first compound 0.3 µM) was 0.15%. For the same compound, the viability, T/C (second compound 1 µM, first compound 0.000949 µM) was 0.31%, the viability, T/C (second compound 1 µM, first compound 0.003 µM) was 0.22% and the viability, T/C (second compound 1 µM, first compound 0.00949 µM) was 1.17%. For the same compound, the viability, T/C (second compound 1 µM, first compound 0.03 µM) was 0.2%, the viability, T/C (second compound 1 µM, first compound 0.0949 µM) was 0.1% and the viability, T/C (second compound 1 µM, first compound 0.3 µM) was 0.14%. The viability, T/C (second compound 3.16 µM, first compound 0.000949 µM) was 0.33%, the viability, T/C (second compound 3.16 µM, first compound 0.003 µM) was 0.27% and the viability, T/C (second compound 3.16 µM, first compound 0.00949 µM) was 0.28%. The viability, T/C (second compound 3.16 µM, first compound 0.03 µM) was 0.14%, the viability, T/C (second compound 3.16 µM, first compound 0.0949 µM) was 0.4% and the viability, T/C (second compound 3.16 µM, first compound 0.3 µM) was 0.25%. For the same compound, the viability, T/C (second compound 10 µM, first compound 0.000949 µM) was 0.09%, the viability, T/C (second compound 10 µM, first compound 0.003 µM) was 3.32% and the viability, T/C (second compound 10 µM, first compound 0.00949 µM) was 3.67%. It also gave a viability, T/C (second compound 10 µM, first compound 0.03 µM) of 0.13%, a viability, T/C (second compound 10 µM, first compound 0.0949 µM) of 0.18% and a viability, T/C (second compound 10 µM, first compound 0.3 µM) of 0.22%.

O=C(c1cc(Cc2n[nH]c(=O)c3ccccc23)ccc1F)N1CCN(C(=O)C2CC2)CC1 + CN1CCN(c2cc(C(=O)Nc3cc4cc(-c5cnn(C)c5)ccc4cn3)ccn2)CC1 was tested, and the IC50 (second compound 0.0316 µM) was greater than 10000 nM, the IC50 (second compound 0.1 µM) was greater than 10000 nM and the IC50 (second compound 0.316 µM) was less than 31.6 nM. The IC50 (second compound 1 µM) was less than 31.6 nM, the IC50 (second compound 3.16 µM) was less than 31.6 nM and the IC50 (second compound 10 µM) was less than 31.6 nM. It also gave a viability, T/C (second compound 0.0316 µM, first compound 0.0316 µM) of 86.3%, a viability, T/C (second compound 0.0316 µM, first compound 0.1 µM) of 88% and a viability, T/C (second compound 0.0316 µM, first compound 0.316 µM) of 89.6%. It also gave a viability, T/C (second compound 0.0316 µM, first compound 1 µM) of 94.7%, a viability, T/C (second compound 0.0316 µM, first compound 3.16 µM) of 68.2% and a viability, T/C (second compound 0.0316 µM, first compound 10 µM) of 83.5%. For the same compound, the viability, T/C (second compound 0.1 µM, first compound 0.0316 µM) was 71.1%, the viability, T/C (second compound 0.1 µM, first compound 0.1 µM) was 70.4% and the viability, T/C (second compound 0.1 µM, first compound 0.316 µM) was 69.2%. It also gave a viability, T/C (second compound 0.1 µM, first compound 1 µM) of 65.6%, a viability, T/C (second compound 0.1 µM, first compound 3.16 µM) of 46.4% and a viability, T/C (second compound 0.1 µM, first compound 10 µM) of 60.5%. It also gave a viability, T/C (second compound 0.316 µM, first compound 0.0316 µM) of 23.5%, a viability, T/C (second compound 0.316 µM, first compound 0.1 µM) of 20.9% and a viability, T/C (second compound 0.316 µM, first compound 0.316 µM) of 17.7%. The viability, T/C (second compound 0.316 µM, first compound 1 µM) was 12.1%, the viability, T/C (second compound 0.316 µM, first compound 3.16 µM) was 21.3% and the viability, T/C (second compound 0.316 µM, first compound 10 µM) was 15.1%. For the same compound, the viability, T/C (second compound 1 µM, first compound 0.0316 µM) was 0.42%, the viability, T/C (second compound 1 µM, first compound 0.1 µM) was 0.25% and the viability, T/C (second compound 1 µM, first compound 0.316 µM) was 0.36%. It also gave a viability, T/C (second compound 1 µM, first compound 1 µM) of 0.19%, a viability, T/C (second compound 1 µM, first compound 3.16 µM) of 0.32% and a viability, T/C (second compound 1 µM, first compound 10 µM) of 0.44%. For the same compound, the viability, T/C (second compound 3.16 µM, first compound 0.0316 µM) was 0.18%, the viability, T/C (second compound 3.16 µM, first compound 0.1 µM) was 0.2% and the viability, T/C (second compound 3.16 µM, first compound 0.316 µM) was 0.63%. The viability, T/C (second compound 3.16 µM, first compound 1 µM) was 0.28%, the viability, T/C (second compound 3.16 µM, first compound 3.16 µM) was 0.34% and the viability, T/C (second compound 3.16 µM, first compound 10 µM) was 2.51%. The viability, T/C (second compound 10 µM, first compound 0.0316 µM) was 0.11%, the viability, T/C (second compound 10 µM, first compound 0.1 µM) was 0.31% and the viability, T/C (second compound 10 µM, first compound 0.316 µM) was 3.38%. For the same compound, the viability, T/C (second compound 10 µM, first compound 1 µM) was 0.18%, the viability, T/C (second compound 10 µM, first compound 3.16 µM) was 0.23% and the viability, T/C (second compound 10 µM, first compound 10 µM) was 0.69%.
